Test results from paper PMC3914932, “Automated NMR Fragment Based Screening Identified a Novel Interface Blocker to the LARG/RhoA Complex” (PLoS ONE, 2014).

Target: T1, RhoA (Homo sapiens, UniProt P61586)
T1 construct: residues 1–193
Experiment: […] HSQC chemical shift perturbation titration; also STD and WaterLOGSY fragment screening
Type: binding

T1 sequence (P61586 whole entry, the tested form may be a part): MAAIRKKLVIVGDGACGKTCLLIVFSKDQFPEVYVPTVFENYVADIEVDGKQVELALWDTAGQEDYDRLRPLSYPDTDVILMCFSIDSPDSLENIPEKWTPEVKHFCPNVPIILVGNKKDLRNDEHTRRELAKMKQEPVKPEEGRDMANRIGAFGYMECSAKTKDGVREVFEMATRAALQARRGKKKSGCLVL

- Kd: 110 µM
Compound: c1ccc(COC2CNC2)cc1 [R1]
